According to patent US20240358693A1, “METHODS OF TREATING PAIN” (Aisa Pharma, Inc., priority 2023, published 2024):

System: participants with SSc-RP
Assay: Adverse events and serious adverse events (safety, tolerability)
Format: in vivo
Description: An AE is any event, side effect, or other untoward medical occurrence that occurs in conjunction with the use of a medicinal product in humans, whether or not considered to have a causal relationship to this treatment.
Severity of AEs will be graded by the Investigator as one of: • Mild (Grade 1): A type of AE that is usually transient and may require only minimal treatment or therapeutic intervention.
An SAE is an AE occurring during any study phase (i.e., baseline, treatment, washout, or follow-up), and at any dose of the study drug (active or placebo), that fulfills one or more of the following: • Results in death • It is immediately life-threatening • It requires in participant hospitalization or prolongation of existing hospitalization • It results in persistent or significant disability or incapacity • Results in a congenital abnormality or birth defect • It is an important medical event that may jeopardize the participant or may require medical intervention to prevent one of the outcomes listed above.
Treatment-emergent AEs (TEAEs) are defined as AEs that occur or worsen after the dose of study drug. If the timing of the start of an AE could not be determined unambiguously from the start or end dates provided, it will be assumed to be a TEAE. An AE is considered related if the relationship to either of the study drug has been indicated as possibly or probably or definite related by the investigator. An AE leading to study withdrawal is defined as an AE that cause a subject early terminated from the study. AEs will be identified as emerging in the following parts: • TEAEs for Part A will be those that started during Part A (i.e., from the first dose in Part A to end of follow up of Part A). • TEAEs for Part B will be those that started during Part B (i.e., from the first dose in Part B to end of follow-up of Part B).
Adverse events were coded using the most current version of the MedDRA® Version 22.0 or higher. The analysis of AEs was based on the concept of treatment emergent AEs. Treatment emergent AEs were tabulated by treatment group and included the number of participants for whom the event occurred, the severity, and relationship to study drug. Treatment emergent AEs (TEAEs) leading to discontinuation and SAEs with onset after the start of study drug were also summarized. All AEs and SAEs (including those with onset or worsening before the start of study drug) through the end of the study were listed.

Row | Compound | Safety: number of AE (Cilnidipine 20 mg, HA-mild, n = 8) | Safety: withdrawals (Cilnidipine 20 mg, n = 8) | Safety: number of AE (Pooled Cilnidipine, in combo with T, n = 9) | Safety: withdrawals (Pooled Cilnidipine, n = 9) | incidence of Adverse Events / overall adverse event rate (all patients who received any dose of cilnidipine (n=17)) [%] | tolerability (cilnidipine 10 mg and 20 mg, alone or in combination with tadalafil) | severity grade of adverse events reported (patients treated with cilnidipine) | Safety: grade of Adverse Events (AEs) (summary of data (Table S)) | Safety: treatment D/Cs (discontinuations) (summary of data (Table S)) | Safety: worst AE by group (in vivo)
1 | COCCOC(=O)C1=C(C)NC(C)=C(C(=O)OC/C=C/c2ccccc2)C1c1cccc([N+](=O)[O-])c1 (stereo not shown) [Cilnidipine, cilnidipine] | 1AE (HA-mild; 1 | 1AE (HA-mild; 1 | 1AE (in combo with T); | no withdrawals | 17 | well tolerated | only mild (Grade 1) | Grade 1 Adverse | No treatment D/Cs | –
2 | CN1CC(=O)N2[C@H](c3ccc4c(c3)OCO4)c3[nH]c4ccccc4c3C[C@@H]2C1=O [Tadalafil, tadalafil] | – | – | – | – | – | – | – | – | – | Worst AE in tadalafil
